# “And” between values parts separate entries of the source, which are not always exact repeats. Equal values may be shown once. Marks after values point to notes of the source that are not given here.
# What was measured:
# IL-5 production in BALF = test: BALF IL-5 production in mouse allergic airway inflammation model; assay type: in vivo
# Procedure: (§1) The test was carried out in accordance with the method of Nagai et al. (see H. Nagai, H. Takeda, S. Yamaguchi, H. Tanaka, A. Matsuo and N. Inagaki, “The effect of thromboxane A2 receptor antagonist BAY-u-3405 on experimental allergic reactions”, Prostaglandins, 50, 75-87, 1995). Specifically, 0.5 ml of physiological saline containing 50 μg of OVA and 1 mg of aluminum hydroxide gel as adjuvant was injected twice at 12 day interval into the abdominal cavity of each of male Balb/c mice of 7 weeks of age for active sensitization. After 22, 26 and 30 days of the initial sensitization, each animal was forced to inhale 1% OVA solution for 30 minutes using an ultrasonic nebulizer to prepare a mouse allergic airway inflammation model. Total blood and BALF were collected 8 hours after the final antigen inhalation. The collected blood was allowed to stand overnight at room temperature, and then centrifuged at 300 rpm for 15 minutes, and the light yellow transparent fraction separated into the supematant was used as an antiserum. The IgE antibody titer in the antiserum was measured by 24 hours' heterogeneous (rat) PCA. On the other hand, the collected BALF supernatant was used as a sample for cytokine measurement, and the cell pellets after preparation were counted as an index of the infiltration of inflammatory cells. Each compound to be tested was continuously administered 5 days starting from the day before each sensitization and 10 days starting from the day before inhalation, at a dose of 10, 30 or 100 mg/kg in the case of oral administration or 10 mg/kg in the case of intraperitoneal or intravenous injection. Results of the measurement of IgE antibody titer in serum and amount of IL-5 and the number of eosinophils in BALF are shown in Tables 10, 11 and 12, respectively. The treatments in each group shown in each table are as follows.
# (§2) Physiological saline: physiological saline stimulation+vehicle administration
# (§3) Control: OVA stimulation+vehicle administration
# (§4) Compound (1): OVA stimulation+Compound (1) administration
# SD rats = test: Acute toxicity LD50, intravenous injection; assay type: in vivo, rat
# Procedure: The toxicity of the compounds of the present invention of the formula (I) is very low and therefore, the compounds may be considered safe for pharmaceutical use. For example, LD50 of 2-deoxy-2-[3S-(9-phenylnonanoyloxy)tetradecanoyl]-amino-3-O-(9-phenylnonanoyl)-4-O-sulfo-D-glucopyranose sodium salt (The compound (1) described hereinafter) is 60-70 mg/kg on SD rats were administrated by intravenous injection.
# [1] = tested on: eosinophils infiltration in BALF; test: BALF eosinophils infiltration in mouse allergic airway inflammation model; assay type: in vivo
# Procedure: as §1, §2, §3, §4
# [2] = tested on: IL-2 production by spleen cells; test: In vitro OVA-stimulated IL-2 production by spleen cells from OVA-sensitized mice; assay type: cell-based, mouse; settings: for Amount of IL-2: spleen cells, 1 mg/ml OVA, 96 hours, ELISA
# Procedure: (§5) OVA-sensitized animals were prepared in accordance with the method of Nagai et al. (the method described in Example 2). Specifically, 0.5 ml of physiological saline containing 50 μg of OVA and 1 mg of aluminum hydroxide gel as adjuvant was injected twice at 12 day interval into the abdominal cavity of each of male Balb/c mice of 7 weeks of age for active sensitization. After 22, 26 and 30 days of the initial sensitization, each animal was forced to inhale 1% OVA solution for 30 minutes using an ultrasonic nebulizer. After 8 hours of the final antigen inhalation, the spleen was collected to prepare spleen cells. The spleen cells were cultured for 96 hours in the presence of 1 mg/ml of OVA, and the cytokine released in the culture supernatant was determined by ELISA method. Each of the compounds to be tested was added to a final concentration of 0.3, 1, 3, 10 or 30 μM simultaneously with OVA.
# IgE antibody production = test: Serum IgE antibody production in mouse allergic airway inflammation model; assay type: in vivo; settings: 24 hours' heterogeneous (rat) PCA
# Procedure: as §1, §2, §3, §4
# [3] = tested on: Compound 48/80-induced scratching behavior; test: Mouse Compound 48/80-induced itch model; assay type: in vivo; settings: for The number of times of scratching: 20 minutes after injection of Compound 48/80
# Procedure: This test was carried out in accordance with the method of Kubo et al. (Michinori Kubo, Hideaki Matsuda, Takeshi Itadaki, Yasuko Ido and Masayuki Yoshikawa, Studies on herb medicine and jifushi (first report), Anti-itching activity of 70% ethanol extract of jifushi and screening of effective component, Journal of the Pharmaceutical Society of Japan, 117(4), 193-201, 1997). Specifically, 0.1 ml of physiological saline containing Compound 48/80 (manufactured by Sigma Chemical Company) (100 μg) was administered subcutaneously into the dorsal part of each male ddy mouse of 6 to 7 weeks of age to induce scratching behavior. The scratching behavior was judged by measuring the number of times of scratching for 20 minutes immediately after the injection, by setting the behavior of each mouse to scratch the injected part with a hind leg for 1 second or more as one. Each compound to be tested was administered intravenously 1 hour before the induction.
# [4] = tested on: IL-4 production by spleen cells; test: In vitro OVA-stimulated IL-4 production by spleen cells from OVA-sensitized mice; assay type: cell-based, mouse; settings: for Amount of IL-4: Table 16, OVA-stimulated IL-4 production, spleen cells, 96 hours, ELISA
# Procedure: as §5
# [5] = tested on: IFN-γ production by spleen cells; test: In vitro OVA-stimulated IFN-γ production by spleen cells from OVA-sensitized mice; assay type: cell-based, mouse; settings: for Amount of IFN-γ: Table 15, OVA-stimulated IFN-γ production, spleen cells, 96 hours, ELISA
# Procedure: as §5
# [6] = tested on: DNFB-induced mouse ear edema; test: DNFB-induced mouse ear edema; assay type: in vivo; settings: for Increasing ratio of auricle thickness: 1 hour after reaction induction
# Procedure: Anti-DNP-IgE antibody (3 μg/body) was administered from the caudal vein of each of female Balb/c mice of 7 weeks of age, and the reaction was induced by applying 25 μl of a 0.15% DNFB-containing acetone:olive oil (3:1) mixed solution (hereinafter referred to as “antigen”) to each of both sides of the left and right auricles 24 hours after the administration. Each compound to be tested was administered orally or intravenously 1 hour before the reaction induction. Before the reaction induction and 1 hour after the reaction induction, auricle thickness was measured using a dial sickness gage, and the average value of the left and right auricle thicknesses was used as the measured value at respective time. The value was shown by the increasing ratio of the auricle thickness from before the reaction induction. In Table 9, treatments in each group are as follows.
# Vehicle: anti-DNP-IgE antibody administration+vehicle application+vehicle administration
# Control: anti-DNP-IgE antibody administration+antigen application+vehicle administration
# Compound (1): anti-DNP-IgE antibody administration+antigen application+Compound (1) administration
# [7] = 0.3 to 30 μM, spleen cells from OVA-sensitized mice
compound,measurement,setting,value
"CCCCCCCCCCC[C@@H](CC(=O)N[C@H]1C(O)O[C@H](CO)[C@@H](OS(=O)(=O)[O-])[C@@H]1OC(=O)CCCCCCCCc1ccccc1)OC(=O)CCCCCCCCc1ccccc1.[Na+] (stereo partly drawn) [Compound (1), 2-deoxy-2-[3S-(9-phenylnonanoyloxy)tetradecanoyl]amino-3-O-(9-phenylnonanoyl)-4-O-sulfo-D-glucopyranose sodium]",Amount of IL-5 in BALF,IL-5 production in BALF; 10 mg/kg i.p.,9.2 ± 1.5**^b pg/BALF
same,Amount of IL-5 in BALF,IL-5 production in BALF; 10 mg/kg i.v.,16.2 ± 3.8**^b pg/BALF
same,Amount of IL-5 in BALF,IL-5 production in BALF; 10 mg/kg p.o.,65.1 ± 15.9 pg/BALF
same,Amount of IL-5 in BALF,IL-5 production in BALF; 30 mg/kg p.o.,50.8 ± 13.7 pg/BALF
same,Amount of IL-5 in BALF,IL-5 production in BALF; 100 mg/kg p.o.,26.7 ± 7.5 pg/BALF
same,LD50,SD rats,60 to 70 mg/kg
same,The number of eosinophils in BALF,[1]; 10 mg/kg i.p.,0.0 ± 0.0*^b × 10^5 cells/BALF
same,The number of eosinophils in BALF,[1]; 10 mg/kg i.v.,0.1 ± 0.0*^b × 10^5 cells/BALF
same,The number of eosinophils in BALF,[1]; 10 mg/kg p.o.,1.4 ± 0.4 × 10^5 cells/BALF
same,The number of eosinophils in BALF,[1]; 30 mg/kg p.o.,0.7 ± 0.2 × 10^5 cells/BALF
same,The number of eosinophils in BALF,[1]; 100 mg/kg p.o.,0.3 ± 0.1 × 10^5 cells/BALF
same,Amount of IL-2,[2]; 0.3 μM,48.4 ± 3.0 pg/mL
same,Amount of IL-2,[2]; 1 μM,36.1 ± 5.0 pg/mL
same,Amount of IL-2,[2]; 3 μM,22.9 ± 2.9 pg/mL
same,Amount of IL-2,[2]; 10 μM,11.7 ± 2.2 pg/mL
same,Amount of IL-2,[2]; 30 μM,4.3 ± 1.7 pg/mL
same,Effect on in vitro OVA-stimulated IL-2 production,[2]; [7],significantly inhibited
same,Serum IgE antibody titer,IgE antibody production; 10 mg/kg i.p.,69.3 ± 17.6***^b
same,Serum IgE antibody titer,IgE antibody production; 10 mg/kg i.v.,20.0 ± 3.7***^b
same,Serum IgE antibody titer,IgE antibody production; 10 mg/kg p.o.,304.0 ± 68.2
same,Serum IgE antibody titer,IgE antibody production; 30 mg/kg p.o.,176.0 ± 35.2
same,Serum IgE antibody titer,IgE antibody production; 100 mg/kg p.o.,120.0 ± 30.1
same,The number of times of scratching,[3]; 1 mg/kg intravenously,68.6 ± 18.8
same,The number of times of scratching,[3]; 3 mg/kg intravenously,61.3 ± 9.9
same,The number of times of scratching,[3]; 10 mg/kg intravenously,26.8 ± 16.8
same,The number of times of scratching,[3]; 30 mg/kg intravenously,6.3 ± 4.4
same,Effect on scratching behavior,[3]; 10 or 30 mg/kg intravenously,significantly reduced scratching behavior
same,Effect on in vitro OVA-stimulated IL-4 production,"[4]; 3 to 30 μM, spleen cells from OVA-sensitized mice",significantly inhibited
same,Amount of IL-4,[4]; 0.3 μM,253.0 ± 45.9 pg/mL
same,Amount of IL-4,[4]; 1 μM,203.3 ± 37.3 pg/mL
same,Amount of IL-4,[4]; 3 μM,139.0 ± 19.3 pg/mL
same,Amount of IL-4,[4]; 10 μM,67.9 ± 8.1 pg/mL
same,Amount of IL-4,[4]; 30 μM,12.8 ± 1.1 pg/mL
same,Effect on in vitro OVA-stimulated IFN-γ production,[5]; [7],significantly inhibited
same,Amount of IFN-γ,[5]; 0.3 μM,1462.9 ± 202.8 pg/mL
same,Amount of IFN-γ,[5]; 1 μM,658.1 ± 66.6 pg/mL
same,Amount of IFN-γ,[5]; 3 μM,457.6 ± 51.0 pg/mL
same,Amount of IFN-γ,[5]; 10 μM,349.7 ± 81.0 pg/mL
same,Amount of IFN-γ,[5]; 30 μM,160.5 ± 42.9 pg/mL
same,Increasing ratio of auricle thickness,[6]; 10 mg/kg i.v.,16.4 ± 1.9%
same,Increasing ratio of auricle thickness,[6]; 10 mg/kg p.o.,14.3 ± 1.8%
same,Inhibition of increase in the auricle thickness,"[6]; 40 mg/kg oral administration, versus control",45%
same,Increasing ratio of auricle thickness,[6]; 40 mg/kg p.o.,10.2% and 10.2 ± 1.6 %

# From patent US6495678B1, “Immunosuppressant containing glucopyranose derivative as active ingredient” (Ono Pharmaceutical Co., Ltd., priority 1998, dated 2002)
